In ChEMBL document CHEMBL3638826, “Heterocyclic compounds as ERK inhibitors” (2015):

Biological target: Mitogen-activated protein kinase 1 (Mus musculus, UniProt P63085)
Test: IMAP Assay : Condition 1: Activated ERK2 activity was also determined in the IMAP assay format using the procedure outlined above. 1 μl of 25× compound was added to […] of kinase buffer containing 0.25 ng fully phosphorylated, active Mouse ERK2 protein. Following a 30 minute incubation, the reactions were initiated by addition of 10 μl of kinase buffer containing 1 μM ERK2 IMAP substrate peptide (0.9 μM unlabeled […]-CONH2 and 100 nM […](5-carboxyfluorescein)-CONH2) and 30 μM ATP. Reactions proceeded for 30 minutes before termination by addition of 60 μl IMAP detection beads in binding buffer. Plates were read as above after 30 minute binding equilibration. Active compounds were reconfirmed in an independent assay.

Chain of Mitogen-activated protein kinase 1 (P63085 whole entry): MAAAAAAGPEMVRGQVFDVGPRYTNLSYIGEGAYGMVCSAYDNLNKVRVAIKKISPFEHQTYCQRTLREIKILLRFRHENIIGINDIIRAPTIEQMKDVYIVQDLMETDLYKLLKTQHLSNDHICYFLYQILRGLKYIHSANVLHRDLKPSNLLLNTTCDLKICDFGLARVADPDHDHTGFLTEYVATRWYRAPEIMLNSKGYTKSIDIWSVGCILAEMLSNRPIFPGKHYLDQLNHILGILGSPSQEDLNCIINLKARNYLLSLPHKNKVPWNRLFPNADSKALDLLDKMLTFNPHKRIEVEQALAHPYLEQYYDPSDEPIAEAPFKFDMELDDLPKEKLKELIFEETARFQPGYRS

`COc1cccc(F)c1CN1C[C@H](NC(=O)c2ccc3[nH]nc(-c4ccncc4)c3c2)CC[C@H]1C(=O)N1CCC(F)(F)CC1` was tested, and the IC50 was 35 nM.
